In experiment [1] the target is T1, ALK2R206H (mutant ALK2, N-terminally tagged with GST) (Homo sapiens, UniProt Q04771, R206H).
T1 construct: purchased Carna Bioscience or ThermoFisher 09-148 or PV6232
T1 sequence (Q04771 21-509 R206H): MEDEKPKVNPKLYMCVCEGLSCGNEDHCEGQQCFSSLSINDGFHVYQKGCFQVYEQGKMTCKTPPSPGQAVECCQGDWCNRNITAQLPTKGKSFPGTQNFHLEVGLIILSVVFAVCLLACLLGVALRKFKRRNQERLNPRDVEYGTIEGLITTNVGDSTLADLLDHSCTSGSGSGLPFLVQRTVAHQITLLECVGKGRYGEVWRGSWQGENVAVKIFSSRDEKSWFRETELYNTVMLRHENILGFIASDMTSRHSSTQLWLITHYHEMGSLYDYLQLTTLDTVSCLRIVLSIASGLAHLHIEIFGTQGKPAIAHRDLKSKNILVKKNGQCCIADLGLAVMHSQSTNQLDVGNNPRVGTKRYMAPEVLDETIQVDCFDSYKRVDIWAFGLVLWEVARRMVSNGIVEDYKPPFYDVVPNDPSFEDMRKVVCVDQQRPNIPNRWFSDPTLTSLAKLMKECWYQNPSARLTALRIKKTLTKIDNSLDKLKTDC
The experiment in a line: ALK binding assay (LANTHASCREEN TR-FRET competitive binding, displacement of Kinase Tracer 178). Particulars: read-out: Binding Assay (IC50 class). Summed up: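 GST-tagged ALK2 R206H (2-5 nM) mixed with Eu-anti-GST antibody (4-10 nM), Kinase Tracer 178 (50 nM, near its Kd) and compound titration (1% DMSO) in Kinase Buffer A, 30 min at room temperature. Tracer displacement read as TR-FRET ratio, normalized to controls; IC50 from 4-parameter fit.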

A further experiment concerns the target T2, human ALK2 R206H (Homo sapiens, UniProt Q04771, R206H).
T2 construct: expressed in transfected cells; host or cells: HEK293 (ATCC CRL1573), lentivirus transduction, blasticidin selection
T2 sequence (Q04771 21-509 R206H): T1 sequence (Q04771 21-509 R206H)
In words: Cell-based ALK2-R206H cell activity assay (Smad1-Ser463/Ser465 phosphorylation by AlphaLISA in HEK293-ALK2-R206H cells). To be noted: phospho-Smad1 AlphaLISA, read-out: Cell Line (Cell Assay, IC50 class). How it is done: Example 11. Cell-Based ALK2-R206H Cell Activity Assay
A HEK293 (ATCC, Cat No. CRL1573) based stable cell line expressing human ALK2 R206H cDNA (synthesized by GeneScript, Piscataway, N.J.) and a FLAG tag at the C-terminus was generated by lentivirus transduction and subsequent blasticidin (Life Technologies, Cat No. A1113902) selection at 10 μg/ml for >2 wks. This cell line was named HEK293-ALK2-R206H.
B. Measurement of Smad1-Ser463/Ser465 Phosphorylation by AlphaLISA
HEK293-ALK2-R206H cells were grown, harvested, and then resuspended in serum-free, phenol red-free DMEM high glucose media (Life Technologies, Cat No. 31053). The media also contained 50 units/ml penicillin and 50 μg/ml streptomycin (Life Technologies, Cat. No. 15070-063). HEK293-ALK2-R206H cells were then plated in white opaque 384-wells microplates (2×10^4/well) (OptiPlate-384, PerkinElmer, Waltham, Mass., Cat No. 6007299) overnight (>16h) at 37° C. 5% CO2 for use in the assay.
Test compounds were first diluted to 4 mM or 0.4 mM and then serially diluted 3-fold into 10 different concentrations using DMSO. Each concentration of compound was further diluted 40-fold with phenol red-free DMEM (Life Technologies, Cat No. 31053). 2 μl of the diluted compounds were then dispensed into the HEK293-ALK2-R206H cell-containing wells of the microplates in duplicates. In this way, each compound was tested in 10 doses (3-fold serial dilution with the top concentration being 10 μM or 1 μM). Liquid handling was achieved using a Bravo Automated Liquid Handling Platform (Agilent Technologies). DMSO without compound was used as a negative control. The positive control was 1 μM LDN193189, a known bone morphogenetic protein (BMP inhibitor).
After 2-3 hours of incubation with test compound or control, the cells were lysed and signal was developed using ALPHASCREEN® SUREFIRE® SMAD1 (p-Ser463/465) cellular kinase assay kit (PerkinElmer, Cat No. TGRSM1S10K) following the manufacturer's recommended protocol. The microplates were read using Perkin Elmer ENVISION® plate reader (emission […]). The signal reflected the level of phospho-Ser/463/465-Smad1 in the lysate. The raw data were plotted using the DMSO negative and LDN193189 positive controls as the 0% and 100% inhibition, respectively. The 10-point dose response curve was used to calculate the IC50 values.
The results of this assay are shown in Table 3 in the column labeled “Cell Assay” wherein “A” represents an IC50 of less than or equal to 100 nM; “B” an IC50 of greater than 100 nM and less than or equal to 500 nM; “C” an IC50 of greater than 500 nM. Blank values in the table indicate that the particular compound was not tested in this assay.

For the compound `CCOC(=O)N1CCN(c2ccnc3[nH]c(-c4cn(C)nc4F)cc23)CC1` [Compound 51], the IC50 (in general, the midpoint of a concentration-inhibition curve) in experiment [1] was at most 10 nM; at human ALK2 R206H, 100 to 500 nM.
In the same order, the values of `CCc1ccc(-c2cc3c(N4CCN(C(=O)C5CC5)CC4)ccnc3[nH]2)cc1` [Compound 52] are 10 to 50 nM and 100 to 500 nM.
In the case of `CCOC(=O)N1CCN(c2ccnc3[nH]c(-c4ccc(C#N)cc4)cc23)CC1` [Compound 53], the figures for the IC50 (in experiment [1]; on human ALK2 R206H) were at most 10 nM and at most 100 nM, respectively.
Taken in the same sequence, the figures for `Cn1cc(-c2cc3c(N4CCN(C(=O)[C@H]5C[C@@H]5C#N)CC4)ccnc3[nH]2)cn1` [Compound 54] were at most 10 nM and 100 to 500 nM.
In the same order, the values of `Cn1cc(-c2[nH]c3nccc(N4CCN(C(=O)C5CC5)CC4)c3c2C#N)cn1` [Compound 55] are at most 10 nM and 100 to 500 nM.
Regarding `CCOC(=O)N1CCN(c2ccnc3[nH]c(-c4ccc(C#N)cn4)cc23)CC1` [Compound 56], the IC50 in experiment [1] is at most 10 nM; on human ALK2 R206H, 100 to 500 nM.
Consider `COc1cccc(-c2cc3c(N4CCN(C(=O)C5CC5)CC4)ccnc3[nH]2)c1` [Compound 59], for which the IC50 was at most 10 nM in experiment [1] and 100 to 500 nM on human ALK2 R206H.
In the case of `COc1ccc(-c2cc3c(N4CCN(C(=O)C5CC5)CC4)ccnc3[nH]2)cc1` [Compound 60], the IC50 in experiment [1] was at most 10 nM; on human ALK2 R206H it was 100 to 500 nM.
`Cn1cc(-c2cc3c(N4CCN(C(=O)C5CCCC5)CC4)ccnc3[nH]2)cn1` [Compound 64]: the IC50 in experiment [1] is at most 10 nM; on human ALK2 R206H, 100 to 500 nM.
With `CC(C)n1cc(-c2cc3c(N4CCN(C(=O)C5CC5)CC4)ccnc3[nH]2)cn1` [Compound 65], the IC50 in experiment [1] was at most 10 nM; at human ALK2 R206H, at most 100 nM.
Consider `O=C(OC1COC1)N1CCN(c2ccnc3[nH]c(-c4ccccn4)cc23)CC1` [Compound 66], for which the IC50 in experiment [1] was at most 10 nM; at human ALK2 R206H it was 100 to 500 nM.
Taken in the same sequence, the figures for `O=C(OC1COC1)N1CCN(c2ccnc3[nH]c(-c4cccnc4)cc23)CC1` [Compound 67] were at most 10 nM and 100 to 500 nM.
On to `CCOC(=O)N1CCN(c2ccnc3[nH]c(-c4cnn(C)c4)c(C#N)c23)CC1` [Compound 68], for which the values for the half-maximal inhibitory concentration (IC50) (in experiment [1]; on human ALK2 R206H) were at most 10 nM and at most 100 nM, respectively.
For the compound `CCOC(=O)N1CCN(c2ccnc3[nH]c(-c4cn(C)nc4C#N)cc23)CC1` [Compound 69], the IC50 in experiment [1] is at most 10 nM; on human ALK2 R206H, at most 100 nM.
Taken in the same sequence, the figures for `CCOC(=O)N1CCN(c2ccnc3[nH]c(-c4cnn(C)c4C#N)cc23)CC1` [Compound 70] were at most 10 nM and at most 100 nM.
In the case of `Cn1cc(-c2cc3c(N4CCN(C(=O)OCCC#N)CC4)ccnc3[nH]2)cn1` [Compound 71], the values for the IC50 (in experiment [1]; at human ALK2 R206H) were at most 10 nM and 100 to 500 nM, respectively.
In the same order, the values of `Cc1nc(-c2cc3c(N4CCN(C(=O)OC5CC5)CC4)ccnc3[nH]2)cn1C` [Compound 75] are at most 10 nM and at most 100 nM.
Consider `Cn1cnc(-c2cc3c(N4CCN(C(=O)OC5CCC5)CC4)ccnc3[nH]2)c1` [Compound 76], for which the IC50 in experiment [1] was at most 10 nM; at human ALK2 R206H, at most 100 nM.
In the case of `Cn1cc(-c2cc3c(N4CCN(C(=O)OC5CCC5)CC4)ccnc3[nH]2)cn1` [Compound 77], the values for the IC50 (in experiment [1]; at human ALK2 R206H) were at most 10 nM and at most 100 nM, respectively.
In the same order, the values of `CCCC(C)C(=O)N1CCN(c2ccnc3[nH]c(-c4cnn(C)c4)cc23)CC1` (centres unmarked) [Compound 82] are at most 10 nM and over 500 nM.
Consider `CCOC(=O)N1CCN(c2ccnc3[nH]c(-c4csc(C#N)c4)cc23)CC1` [Compound 86], for which the IC50 in experiment [1] was at most 10 nM; at human ALK2 R206H, at most 100 nM.
Take `Cn1cnc(-c2cc3c(N4CCN(C(=O)OC5COC5)CC4)ccnc3[nH]2)c1` [Compound 89]: the figures for the IC50 (in experiment [1]; on human ALK2 R206H) were at most 10 nM and at most 100 nM, respectively.
Taken in the same sequence, the figures for `Cn1cc(-c2cc3c(N4CCN(C(=O)OC5COC5)CC4)ccnc3[nH]2)cn1` [Compound 90] were at most 10 nM and at most 100 nM.
Regarding `Cn1ccc(-c2cc3c(N4CCN(C(=O)OC5COC5)CC4)ccnc3[nH]2)n1` [Compound 91], the figures for the IC50 (in experiment [1]; at human ALK2 R206H) were at most 10 nM and 100 to 500 nM, respectively.
Taken in the same sequence, the figures for `Cn1cc(-c2cc3c(N4CCN(C(=O)C5CC(F)C5)CC4)ccnc3[nH]2)cn1` (centres unmarked) [Compound 93] were at most 10 nM and at most 100 nM.
Consider `CCOC(=O)N1CCN(c2ccnc3[nH]c(-c4cnn(C(C)C)c4)cc23)CC1` [Compound 96], for which the IC50 in experiment [1] was at most 10 nM; at human ALK2 R206H, at most 100 nM.
For `CC(C)COC(=O)N1CCN(c2ccnc3[nH]c(-c4cnn(C)c4)cc23)CC1` [Compound 97], the IC50 in experiment [1] is at most 10 nM; on human ALK2 R206H it was 100 to 500 nM.
As for `CCC(C)OC(=O)N1CCN(c2ccnc3[nH]c(-c4cnn(C)c4)cc23)CC1` (centres unmarked) [Compound 98], the IC50 in experiment [1] was at most 10 nM; on human ALK2 R206H, 100 to 500 nM.
Taken in the same sequence, the figures for `CCOC(=O)N1CCN(c2ccnc3[nH]c(-c4cnn(C)c4CC)cc23)CC1` [Compound 100] were at most 10 nM and 100 to 500 nM.
In the case of `Cc1nc(-c2cc3c(N4CCN(C(=O)OC5COC5)CC4)ccnc3[nH]2)co1` [Compound 102], the IC50 was at most 10 nM in experiment [1] and 100 to 500 nM on human ALK2 R206H.
With `Cc1ncc(-c2cc3c(N4CCN(C(=O)OC5COC5)CC4)ccnc3[nH]2)o1` [Compound 103], the figures for the IC50 (in experiment [1]; on human ALK2 R206H) were at most 10 nM and 100 to 500 nM, respectively.
Turning to `Cc1cc(-c2cc3c(N4CCN(C(=O)OC5COC5)CC4)ccnc3[nH]2)on1` [Compound 104], the concentration for half-maximal inhibition (IC50) in experiment [1] was at most 10 nM; on human ALK2 R206H, 100 to 500 nM.
Taken in the same sequence, the figures for `Cn1cc(-c2cc3c(N4CCN(C(=O)OC5COC5)CC4)ccnc3[nH]2)nn1` [Compound 105] were at most 10 nM and 100 to 500 nM.
On to `Cc1nc(-c2cc3c(N4CCN(C(=O)OC5CC5)CC4)ccnc3[nH]2)cs1` [Compound 109], for which the IC50 in experiment [1] was at most 10 nM; on human ALK2 R206H, at most 100 nM.
Taken in the same sequence, the figures for `CCOC(=O)N1CCN(c2ccnc3[nH]c(-c4cnn(C)c4)c(CO)c23)CC1` [Compound 111] were at most 10 nM and 100 to 500 nM.
Consider `O=C(OC1COC1)N1CCN(c2ccnc3[nH]c(-c4cscn4)cc23)CC1` [Compound 112], for which the figures for the IC50 (in experiment [1]; at human ALK2 R206H) were at most 10 nM and at most 100 nM, respectively.
With `CCOC(=O)N1CCN(c2ccnc3[nH]c(-c4ncc(CC)s4)cc23)CC1` [Compound 113], the IC50 in experiment [1] was at most 10 nM; at human ALK2 R206H it was at most 100 nM.
Taken in the same sequence, the figures for `CCOC(=O)N1CCN(c2ccnc3[nH]c(-c4nc(C)c(C)s4)cc23)CC1` [Compound 114] were at most 10 nM and at most 100 nM.
In the same order, the values of `CCOC(=O)N1CCN(c2ccnc3[nH]c(-c4ccccn4)c(Cl)c23)CC1` [Compound 115] are at most 10 nM and at most 100 nM.
Turning to `C[C@H](F)COC(=O)N1CCN(c2ccnc3[nH]c(-c4cnn(C)c4)cc23)CC1` [Compound 116], the values for the IC50 (in experiment [1]; on human ALK2 R206H) were at most 10 nM and at most 100 nM, respectively.
